In ChEMBL document CHEMBL4043204, “meso-Dihydroguaiaretic acid derivatives with antibacterial and antimycobacterial activity” (Bioorg Med Chem, 2017):
In brackets after ≈: the same amount, converted by molar mass. Activity calls are given as the source filed them. The calls are words filed in the database; no cut-off is given here.

test system: Stenotrophomonas maltophilia; assay: Antibacterial activity against trimethoprim-sulfamethoxazole-resistant Stenotrophomonas maltophilia assessed as inhibition of microbial growth up to 50 ug/ml incubated for 24 hrs by microdilution assay; format: functional; settings: not given

SMILES	Activity
CCN(CC)CCOc1ccc(C[C@@H](C)[C@@H](C)Cc2ccc(OCCN(CC)CC)c(OC)c2)cc1OC	inactive
COc1cc(C[C@@H](C)[C@@H](C)Cc2ccc(OC(=O)c3cnccn3)c(OC)c2)ccc1OC(=O)c1cnccn1	inactive
COc1cc(C[C@@H](C)[C@@H](C)Cc2ccc(OC(=O)c3ccccc3[N+](=O)[O-])c(OC)c2)ccc1O (racemic)	inactive
COc1cc(C[C@@H](C)[C@@H](C)Cc2ccc(OC(=O)c3cccnc3)c(OC)c2)ccc1O (racemic)	inactive
CCCC(=O)Oc1ccc(C[C@H](C)[C@H](C)Cc2ccc(O)c(OC)c2)cc1OC (racemic)	inactive

test system: Acinetobacter baumannii; assay: Antibacterial activity against carbapenem-resistant Acinetobacter baumannii (12-666) assessed as inhibition of microbial growth up to 50 ug/ml incubated for 24 hrs by microdilution assay; format: functional; settings: not given

SMILES	Activity
CCN(CC)CCOc1ccc(C[C@@H](C)[C@@H](C)Cc2ccc(OCCN(CC)CC)c(OC)c2)cc1OC	inactive
COc1cc(C[C@@H](C)[C@@H](C)Cc2ccc(OC(=O)c3cnccn3)c(OC)c2)ccc1OC(=O)c1cnccn1	inactive
COc1cc(C[C@@H](C)[C@@H](C)Cc2ccc(OC(=O)c3ccccc3[N+](=O)[O-])c(OC)c2)ccc1O (racemic)	inactive
COc1cc(C[C@@H](C)[C@@H](C)Cc2ccc(OC(=O)c3cccnc3)c(OC)c2)ccc1O (racemic)	inactive
CCCC(=O)Oc1ccc(C[C@H](C)[C@H](C)Cc2ccc(O)c(OC)c2)cc1OC (racemic)	inactive

test system: Vero; assay: Cytotoxicity against African green monkey Vero cells assessed as reduction in cell viability incubated for 24 hrs by trypan blue staining based assay; settings: Chlorocebus sabaeus

SMILES	IC50
CCN(CC)CCOc1ccc(C[C@@H](C)[C@@H](C)Cc2ccc(OCCN(CC)CC)c(OC)c2)cc1OC	36.2 µg/mL (≈ 68.5 µM)
COc1cc(C[C@@H](C)[C@@H](C)Cc2ccc(OC(=O)c3ccccc3[N+](=O)[O-])c(OC)c2)ccc1O (racemic)	97.1 µg/mL (≈ 202 µM)
COc1cc(C[C@@H](C)[C@@H](C)Cc2ccc(OC(=O)c3cccnc3)c(OC)c2)ccc1O (racemic)	71.4 µg/mL (≈ 164 µM)

test system: Mycobacterium tuberculosis; assay: Antimycobacterial activity against Mycobacterium tuberculosis H37Rv ATCC 27294 assessed as inhibition of mycobacterial growth up to 50 ug/ml incubated for 2 weeks by MABA method; format: functional; settings: not given

SMILES	growth inhibition (GI)
CCCC(=O)Oc1ccc(C[C@H](C)[C@H](C)Cc2ccc(O)c(OC)c2)cc1OC (racemic)	inactive

test system: Klebsiella pneumoniae; assay: Antibacterial activity against extended-spectrum beta-lactamase-positive Klebsiella pneumoniae (14-2081) assessed as inhibition of microbial growth up to 50 ug/ml incubated for 24 hrs by microdilution assay; format: functional; settings: not given

SMILES	Activity
CCN(CC)CCOc1ccc(C[C@@H](C)[C@@H](C)Cc2ccc(OCCN(CC)CC)c(OC)c2)cc1OC	inactive
COc1cc(C[C@@H](C)[C@@H](C)Cc2ccc(OC(=O)c3cnccn3)c(OC)c2)ccc1OC(=O)c1cnccn1	inactive
COc1cc(C[C@@H](C)[C@@H](C)Cc2ccc(OC(=O)c3ccccc3[N+](=O)[O-])c(OC)c2)ccc1O (racemic)	inactive
COc1cc(C[C@@H](C)[C@@H](C)Cc2ccc(OC(=O)c3cccnc3)c(OC)c2)ccc1O (racemic)	inactive
CCCC(=O)Oc1ccc(C[C@H](C)[C@H](C)Cc2ccc(O)c(OC)c2)cc1OC (racemic)	inactive

test system: Escherichia coli; assay: Antibacterial activity against extended-spectrum beta-lactamase-positive Escherichia coli (14-2081) assessed as inhibition of microbial growth up to 50 ug/ml incubated for 24 hrs by microdilution assay; format: functional; settings: not given

SMILES	Activity
CCN(CC)CCOc1ccc(C[C@@H](C)[C@@H](C)Cc2ccc(OCCN(CC)CC)c(OC)c2)cc1OC	inactive
COc1cc(C[C@@H](C)[C@@H](C)Cc2ccc(OC(=O)c3cnccn3)c(OC)c2)ccc1OC(=O)c1cnccn1	inactive
COc1cc(C[C@@H](C)[C@@H](C)Cc2ccc(OC(=O)c3ccccc3[N+](=O)[O-])c(OC)c2)ccc1O (racemic)	inactive
COc1cc(C[C@@H](C)[C@@H](C)Cc2ccc(OC(=O)c3cccnc3)c(OC)c2)ccc1O (racemic)	inactive
CCCC(=O)Oc1ccc(C[C@H](C)[C@H](C)Cc2ccc(O)c(OC)c2)cc1OC (racemic)	inactive

test system: Providencia rettgeri; assay: Antibacterial activity against NDM-1 positive Providencia rettgeri assessed as inhibition of microbial growth up to 50 ug/ml incubated for 24 hrs by microdilution assay; format: functional; settings: not given

SMILES	Activity
CCN(CC)CCOc1ccc(C[C@@H](C)[C@@H](C)Cc2ccc(OCCN(CC)CC)c(OC)c2)cc1OC	inactive
COc1cc(C[C@@H](C)[C@@H](C)Cc2ccc(OC(=O)c3cnccn3)c(OC)c2)ccc1OC(=O)c1cnccn1	inactive
COc1cc(C[C@@H](C)[C@@H](C)Cc2ccc(OC(=O)c3ccccc3[N+](=O)[O-])c(OC)c2)ccc1O (racemic)	inactive
COc1cc(C[C@@H](C)[C@@H](C)Cc2ccc(OC(=O)c3cccnc3)c(OC)c2)ccc1O (racemic)	inactive
CCCC(=O)Oc1ccc(C[C@H](C)[C@H](C)Cc2ccc(O)c(OC)c2)cc1OC (racemic)	inactive

test system: Pseudomonas aeruginosa; assay: Antibacterial activity against carbapenem-resistant Pseudomonas aeruginosa (13-1391) assessed as inhibition of microbial growth up to 50 ug/ml incubated for 48 hrs by microdilution assay; format: functional; settings: not given

SMILES	Activity
CCN(CC)CCOc1ccc(C[C@@H](C)[C@@H](C)Cc2ccc(OCCN(CC)CC)c(OC)c2)cc1OC	inactive
COc1cc(C[C@@H](C)[C@@H](C)Cc2ccc(OC(=O)c3cnccn3)c(OC)c2)ccc1OC(=O)c1cnccn1	inactive
COc1cc(C[C@@H](C)[C@@H](C)Cc2ccc(OC(=O)c3ccccc3[N+](=O)[O-])c(OC)c2)ccc1O (racemic)	inactive
COc1cc(C[C@@H](C)[C@@H](C)Cc2ccc(OC(=O)c3cccnc3)c(OC)c2)ccc1O (racemic)	inactive
CCCC(=O)Oc1ccc(C[C@H](C)[C@H](C)Cc2ccc(O)c(OC)c2)cc1OC (racemic)	inactive

test system: Mycobacterium tuberculosis; assay: Antimycobacterial activity against Mycobacterium tuberculosis H37Rv ATCC 27294 assessed as inhibition of mycobacterial growth incubated for 2 weeks by MABA method; format: functional; settings: not given

SMILES	-logMIC
CCN(CC)CCOc1ccc(C[C@@H](C)[C@@H](C)Cc2ccc(OCCN(CC)CC)c(OC)c2)cc1OC	4.55
COc1cc(C[C@@H](C)[C@@H](C)Cc2ccc(OC(=O)c3cnccn3)c(OC)c2)ccc1OC(=O)c1cnccn1	4.23
COc1cc(C[C@@H](C)[C@@H](C)Cc2ccc(OC(=O)c3ccccc3[N+](=O)[O-])c(OC)c2)ccc1O (racemic)	3.94
COc1cc(C[C@@H](C)[C@@H](C)Cc2ccc(OC(=O)c3cccnc3)c(OC)c2)ccc1O (racemic)	4.05
CCCC(=O)Oc1ccc(C[C@H](C)[C@H](C)Cc2ccc(O)c(OC)c2)cc1OC (racemic)	3.94

same assay, conditions: Mycobacterium tuberculosis, H37Rv ATCC 27294, 336 h

SMILES	MIC
CCN(CC)CCOc1ccc(C[C@@H](C)[C@@H](C)Cc2ccc(OCCN(CC)CC)c(OC)c2)cc1OC	25 µg/mL (≈ 47.3 µM)
COc1cc(C[C@@H](C)[C@@H](C)Cc2ccc(OC(=O)c3cnccn3)c(OC)c2)ccc1OC(=O)c1cnccn1	50 µg/mL (≈ 92.2 µM)
COc1cc(C[C@@H](C)[C@@H](C)Cc2ccc(OC(=O)c3ccccc3[N+](=O)[O-])c(OC)c2)ccc1O (racemic)	12.5 µg/mL (≈ 26.1 µM)
COc1cc(C[C@@H](C)[C@@H](C)Cc2ccc(OC(=O)c3cccnc3)c(OC)c2)ccc1O (racemic)	50 µg/mL (≈ 115 µM)

test system: Klebsiella pneumoniae; assay: Antibacterial activity against NDM-1 positive Klebsiella pneumoniae (14-3335) assessed as inhibition of microbial growth up to 50 ug/ml incubated for 24 hrs by microdilution assay; format: functional; settings: not given

SMILES	Activity
CCN(CC)CCOc1ccc(C[C@@H](C)[C@@H](C)Cc2ccc(OCCN(CC)CC)c(OC)c2)cc1OC	inactive
COc1cc(C[C@@H](C)[C@@H](C)Cc2ccc(OC(=O)c3cnccn3)c(OC)c2)ccc1OC(=O)c1cnccn1	inactive
COc1cc(C[C@@H](C)[C@@H](C)Cc2ccc(OC(=O)c3ccccc3[N+](=O)[O-])c(OC)c2)ccc1O (racemic)	inactive
COc1cc(C[C@@H](C)[C@@H](C)Cc2ccc(OC(=O)c3cccnc3)c(OC)c2)ccc1O (racemic)	inactive
CCCC(=O)Oc1ccc(C[C@H](C)[C@H](C)Cc2ccc(O)c(OC)c2)cc1OC (racemic)	inactive

test system: not listed separately; assay: Selectivity index, ratio of IC50 for cytotoxicity against African green monkey Vero cells to MIC for Mycobacterium tuberculosis H37Rv ATCC 27294; format: toxicity, cell-based; settings: read-out: Selectivity Index

SMILES	selectivity ratio
CCN(CC)CCOc1ccc(C[C@@H](C)[C@@H](C)Cc2ccc(OCCN(CC)CC)c(OC)c2)cc1OC	1.45
COc1cc(C[C@@H](C)[C@@H](C)Cc2ccc(OC(=O)c3ccccc3[N+](=O)[O-])c(OC)c2)ccc1O (racemic)	7.76
COc1cc(C[C@@H](C)[C@@H](C)Cc2ccc(OC(=O)c3cccnc3)c(OC)c2)ccc1O (racemic)	1.43

test system: Escherichia coli; assay: Antibacterial activity against oxacillin-resistant Escherichia coli OXA-48 assessed as inhibition of microbial growth up to 50 ug/ml incubated for 24 hrs by microdilution assay; format: functional; settings: not given

SMILES	Activity
CCN(CC)CCOc1ccc(C[C@@H](C)[C@@H](C)Cc2ccc(OCCN(CC)CC)c(OC)c2)cc1OC	inactive
COc1cc(C[C@@H](C)[C@@H](C)Cc2ccc(OC(=O)c3cnccn3)c(OC)c2)ccc1OC(=O)c1cnccn1	inactive
COc1cc(C[C@@H](C)[C@@H](C)Cc2ccc(OC(=O)c3ccccc3[N+](=O)[O-])c(OC)c2)ccc1O (racemic)	inactive
COc1cc(C[C@@H](C)[C@@H](C)Cc2ccc(OC(=O)c3cccnc3)c(OC)c2)ccc1O (racemic)	inactive
CCCC(=O)Oc1ccc(C[C@H](C)[C@H](C)Cc2ccc(O)c(OC)c2)cc1OC (racemic)	inactive
